Laboratory results taken from PubChem BioAssay AID179 (DTP/NCI, 2004).
“And” between values parts separate entries of the source, which are not always exact repeats. Equal values may be shown once. The source made the active and inactive calls.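 How the source made its calls: active means compounds giving half or more protection of infected cells from virus-caused growth loss, again on retest; inactive means the rest.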 Where a SMILES comes first, the peptide text is derived from it. [ ]: non-standard residue; d: D form. The star is where a group is joined. ONb = O=[N+]([O-])c1ccc(CO*)cc1; AllylGly = C=CC[CH](N)C(=O)O; Boc = CC(C)(C)OC(=O)*

Test system: CEM cells HIV-1 protection, formazan growth assay
Assay: NCI AIDS Antiviral Assay
Conditions: for IC50: measured here: growth of uninfected CEM cells
In short: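 Human CEM cells, uninfected and HIV-1-infected, received five drug concentrations, and growth was read by soluble formazan assay. Compounds giving at least 50% protection were retested; reproducible 100% protection defined confirmed active.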

| SMILES | EC50 [µM] | IC50 | outcome |
| --- | --- | --- | --- |
| Nc1c(S)cc(O)c2c1C(=O)c1ccccc1C2=O | > 100 | > 100 µM | – |
| O=CC(=C(I)I)c1ccccc1 | > 2 | 1.05 µM | – |
| COC(=O)C(NC(=O)c1ccccc1)C(c1ccc(Cl)cc1)P(=O)(OC)OC (centres undefined) | > 309 | > 309 µM | – |
| Cc1ccc(S(=O)(=O)c2ccc([N+](=O)[O-])cc2)cc1 | – | – | inactive |
| O=[N+]([O-])c1ccc(N=Nc2ccc(N=C=S)cc2)cc1 | > 200 | 110 µM | – |
| COc1ccc2nc3cc(Cl)ccc3c(NCCCN(Cc3cc(OC)c(OC)c(OC)c3)Cc3cc(OC)c(OC)c(OC)c3)c2c1 | – | – | inactive |
| O=C(O)[C@@H]1CSC(c2ccncc2)N1 (some centres undefined) | > 200 | > 200 µM | – |
| O=c1[nH]c2ccccc2c(O)c1-[n+]1ccccc1 | > 200 | > 200 µM | – |
| CCOC(=O)[C@H]1Nc2ccc(Cl)cc2[C@H]2OCC[C@@H]12 | > 178 | > 178 µM | – |
| Cc1c(OC(C)C(=O)O)ccc2c(-c3ccccc3)cc(=O)oc12 (centres undefined) | – | – | inactive |
| CCOC(=O)Cn1c2ccc(Br)cc2c2nc3ccccc3nc21 | > 100 | > 100 µM | – |
| O=C(NO)C12C3C4C1C1C2C3C41C(=O)NO (centres undefined) | > 1120 | 631 µM | – |
| NC(=O)N/N=C(\Cc1cc(=O)oc2cc(O)ccc12)C(=O)Nc1ccccc1C(N)=O | > 32.4 | > 32.4 µM | – |
| COCN1C(=O)[C@@H]2CCCN2C(=O)c2cc(OC)c(Cc3ccccc3)cc21 | > 200 | > 200 µM | – |
| CC(C)(O)/C=C/C(=O)[C@](C)(O)[C@H]1[C@H](O)C[C@@]2(C)[C@@H]3CC=C4[C@@H](C=C(O)C(=O)C4(C)C)[C@]3(C)C(=O)C[C@]12C | > 0.2 | 0.0324 µM | – |
| C=C(COC(=O)CC(C)(C)CC(=O)O)[C@@H]1CC[C@]2(COC(=O)CC(C)(C)CC(=O)O)CC[C@]3(C)[C@H](CC[C@@H]4[C@@]5(C)CC[C@H](OC(=O)CC(C)(C)CC(=O)O)C(C)(C)[C@@H]5CC[C@]43C)[C@@H]12 | > 200 | 24.5 µM | – |
| O=[N+]([O-])c1ccc(N2N=C(c3ccc4ccccc4c3O)CC2c2ccc(Cl)cc2Cl)c([N+](=O)[O-])c1 (centres undefined) | > 200 | 42.7 µM | – |
| O=[N+]([O-])c1cc(C(F)(F)F)ccc1SSc1ccc(C(F)(F)F)cc1[N+](=O)[O-] | > 200 | 24.5 µM and 13.2 µM | – |
| Cc1ccc(S(=O)c2ccccc2[N+](=O)[O-])cc1 (centres undefined) | > 35.5 | 28.2 µM | – |
| O=c1ccc(=O)n(-c2ccccc2)[nH]1 | > 955 | > 955 µM | – |
| C/C(=N/NC(=O)c1ccccc1O)c1ccc(/C(C)=N\NC(=O)c2ccccc2O)c2nc3cc(C)c(C)cc3nc12 | > 64.6 | > 64.6 µM | – |
| CC(C)(C)CC(C)(C)c1ccc(OCCOCC[N+](C)(C)Cc2ccccc2)cc1 | – | – | inactive |

| SMILES | EC50 [µM] | IC50 | outcome |
| --- | --- | --- | --- |
| COc1ccc(/C=N/N2C(=O)c3c(N)c(C#N)c(-c4ccccc4)c(-c4ccccc4)c3C2=O)cc1 | > 100 | > 100 µM | – |
| CC(=O)N1c2ccccc2Sc2cc(C(O)(C(F)(F)F)C(F)(F)F)ccc21 | > 200 | 13.5 µM | – |
| CNC(=O)n1ncc2ccc([N+](=O)[O-])cc21 | > 200 | 158 µM | – |
| N=C1OC(CN2CCN(c3ccccc3)CC2)CN1C(=S)Nc1ccccc1 (centres undefined) | > 200 | 141 µM | – |
| Nc1nc(SCCc2ccccc2)nc2nc3c(c(-c4ccccc4)c12)CCCC3 | > 200 | > 200 µM | – |
| Cc1cc(=O)c2ccc3c(ccc4c(=O)cc(C)[nH]c43)c2[nH]1 | > 200 | 11.5 µM | – |
| CCCCCCCCCCCCCCCCP(=O)(O)OP(=O)(O)OCC1OC(n2ccc(N)nc2=O)C(O)C1O (centres undefined) | > 200 | – | – |
| NC(=O)C12CC3CC(CC(F)(C3)C1)C2 | > 1260 | > 1260 µM | – |
| CC1CCCc2c(C#N)c(N)nc(-c3ccc(Cl)cc3)c21 (centres undefined) | > 200 | 26.9 µM | – |
| CC[N+](C)(CC)CCC(O)(c1ccccc1)c1ccccc1 | > 200 | > 200 µM | – |
| Cc1nn(C(=O)c2ccc(Cl)cc2)c2c1C(/C=C/c1ccccc1)SC(N)=N2 (centres undefined) | 60.3 | 158 µM | – |
| C=CCC(NC(=O)OC(C)(C)C)C(=O)NC(CCC(=O)OCc1ccc([N+](=O)[O-])cc1)C(N)=O (centres undefined) (Boc-[AllylGly]-Glu(ONb)-NH2; configuration not given here) | > 200 | 102 µM | – |
| O=S1(=O)NNC(=NCc2ccc(F)cc2)c2ccccc21 | – | – | inactive |
| O=C(/C=C/c1ccc(-c2ccccc2)cc1)c1ccccc1 | > 13.2 | > 13.2 µM | – |
| NNc1nnc(CCCCCCCCc2nnc(NN)n2N)n1N | > 200 | 37.2 µM | – |
| O=C1Nc2cccc3c2N(CCC3)C2=C1CCC2 | > 200 | > 200 µM | – |
| CCCCCNC(=O)Sc1ccccc1C(=O)N[C@H](C)C(N)=O | 1 | 123 µM | – |
| C/C(CC(=O)NCCc1ccccc1)=N\NS(=O)(=O)c1ccc(C)cc1 | > 347 | 339 µM | – |
| [N-]=[N+]=NC1=C(c2ccccc2)C(=O)c2cccc3cccc1c23 | > 200 | 7.76 µM | – |
| Nc1c(F)c(F)c2c(c1F)N(CCCCCl)c1ccccc1S2 | > 200 | 21.9 µM | – |
| CC1CCCN2C(=O)CN(N3CCOCC3)CC(=O)N12 (centres undefined) | > 200 | > 200 µM | – |
| COC(=O)Nc1cn2ccc(Sc3ccccc3)cc2n1 | > 45.7 | 0.776 µM | – |

| SMILES | EC50 [µM] | IC50 | outcome |
| --- | --- | --- | --- |
| Cn1c2ccccc2c2nnc(N/N=C/c3ccncc3)nc21 | > 200 | > 200 µM | – |
| CCOP1(=O)CC(C)=C(Cl)C(O)C1 (centres undefined) | > 200 | > 200 µM | – |
| O=C1CC(=O)NC(=NNS(=O)(=O)c2ccc(Cl)cc2)N1 | > 200 | > 200 µM | – |
| COC(=O)CC(C(C(C)=O)C(=O)OCc1ccccc1)N1C(=O)OCC1c1ccccc1 (centres undefined) | > 100 | 95.5 µM | – |
| CC12CCC3(C1)[C@H](CC2=O)C[C@@H](OC(=O)c1ccccc1)C1C(C)(C(=O)O)CCC[C@@]13C (some centres undefined) | > 295 | 13.5 µM | – |
| O=C1/C(=C\c2ccccc2O)Cc2ccccc21 | > 148 | 28.2 µM | – |
| Cc1cc(N(CCC#N)S(=O)(=O)c2ccccc2)ccc1C=Nc1cccc(C(=O)O)c1 | > 151 | > 151 µM | – |
| Cc1cc(C)c2c(c1)NP(=S)(c1ccccc1)N2 (centres undefined) | > 200 | > 200 µM | – |
| O=C1c2ccccc2C(=O)c2c1ccc1c2N=C(c2ccc(F)cc2)CC(c2ccc(Cl)c(Cl)c2)N1 (centres undefined) | > 14.1 | > 14.1 µM | – |
| CC(=O)O[C@@H]1CN(S(=O)(=O)c2ccc(C)cc2)C[C@@H]1C1CCCCC1 | > 200 | 35.5 µM | – |
| Cn1c(=O)c2c(-c3ccccc3)onc2n(C)c1=O | > 200 | 11 µM | – |
| O=S1(=O)Cc2ccccc21 | > 1170 | 589 µM | – |
| CCCNC(=S)N/N=C(\C)c1ccc(S(=O)(=O)N(C)c2ccccc2)cc1 | > 200 | > 200 µM | – |
| CC(C)CC(NC(=O)C(CI)Cc1ccccc1)C(=O)Nc1ccccc1 (centres undefined) | > 100 | > 100 µM | – |
| O=[N+]([O-])c1ccc(Cl)c([N+](=O)[O-])c1 | > 200 | 3.31 µM | – |
| CC(=O)CCC#Cc1ccccc1C(=O)C(C)=[N+]=[N-] | > 50.1 | > 50.1 µM | – |
| COC(=O)C1(C(=O)OC)CC(=O)c2c(OC(=O)c3cccc(OC)c3C#N)ccc(OC(=O)c3cccc(OC)c3C#N)c2C1 | > 200 | 29.5 µM | – |
| COc1ccccc1NC(=S)N/C=C(\C#N)c1nc2ccccc2s1 | > 200 | 117 µM | – |
| Cc1ccc(S(=O)(=O)SCC(=O)c2ccc([N+](=O)[O-])cc2)cc1 | – | 102 µM | inactive |
| Cn1cc(NC(=O)c2cc(NC(=O)c3cc(NC(=O)/C=C/C(=O)Nc4cn(C)c(C(=O)Nc5cn(C)c(C(=O)Nc6cn(C)c(C(=O)NCCC(=N)N)n6)n5)n4)cn3C)cn2C)cc1C(=O)NCCC(=N)N | > 7.76 | 1.45 µM | – |
| CC[C@@]12C=CC(=S)N(CCSc3ccccc3)[C@@H]1c1c(n(S(=O)(=O)c3ccc(OC)cc3)c3ccccc13)CC2 | > 126 | > 126 µM | – |
| CCOP(=O)(OCC)/C(C#N)=C/c1ccc(F)cc1 | > 891 | > 891 µM | – |

| SMILES | EC50 [µM] | IC50 | outcome |
| --- | --- | --- | --- |
| CC1(C)CCc2cc3c(cc2O1)OCC1c2cc(O)c(OCc4ccccc4)cc2OC31 (centres undefined) | > 200 | 23.4 µM | – |
| Oc1ccc(C=NCC2CCCN3CCCCC23)cc1 (centres undefined) | > 200 | 33.1 µM | – |
| CN(C)c1ccc(C=Nc2ccc(Oc3ccc(Cl)cc3)c(Cl)c2)cc1 | > 200 | 28.2 µM | – |
| Oc1ccc(I)c2cccnc12 | > 182 | 2.19 µM | – |
| CC(Oc1ccc(OCC2CCCCC2)cc1)C(=O)OCC(=O)c1ccc(-c2ccccc2)cc1 (centres undefined) | > 20.9 | > 20.9 µM | – |
| ClC1CCC2OOC1O2 (centres undefined) | – | – | inactive |
| O=C1CCC(O)=C1O | > 2190 | > 2190 µM | – |
| COc1ccc(Cl)cc1NC(=O)Nc1cc(C)ccn1 | > 200 | > 200 µM | – |
| COc1ccc(N2C(=O)C3c4[nH]c5ccc(C)cc5c4C4CCC(C(C)C)CC4C3C2=O)cc1 (centres undefined) | – | – | inactive |
| OC1CC1Sc1ccccc1 (centres undefined) | – | – | inactive |
| N#CC1(C#N)C2C=CC(c3coc4cccc2c34)C1(C#N)C#N (centres undefined) | – | – | inactive |
| COC(=O)CCC(=O)C(CC(=O)OC)C(=O)CCC(=O)NCCc1ccccc1 (centres undefined) | > 27.5 | > 27.5 µM | – |
| O=c1[nH]c2ccccc2c(=O)n1/N=C/c1ccc(O)cc1 | > 200 | > 200 µM | – |
| Cc1nn(C(=O)CC(=O)Nc2ccccc2Cl)c(C)c1N=Nc1ccccc1F | – | – | inactive |
| O=C(CNC(=O)c1cnc2ccccc2n1)NCCCNC(=O)CNC(=O)c1cnc2ccccc2n1 | > 100 | > 100 µM | – |
| CCN1CCC(CNC(=O)c2ccc(N)cc2)N1CC (centres undefined) | > 200 | > 200 µM | – |
| Cc1ccc(-c2n[nH]c(=O)n2/N=C\c2ccc([N+](=O)[O-])cc2)cc1 | > 200 | 58.9 µM | – |
| COc1ccc(/C(Cl)=C(\C=N/O)c2ccc(OC)c(OC)c2)cc1OC | > 13.8 | > 13.8 µM | – |
| CCOC(=O)/C(O)=C/c1cc(=O)n(C)c2ccccc12 | > 200 | > 200 µM | – |
